Results as given in patent US20160136229A1, “MATERIALS FOR POSITIVE CATHEPSIN B MODULATION AND METHODS OF USE FOR TREATING MILD COGNITIVE IMPAIRMENT (MCI), EARLY DEMENTIA, A-SYNUCLEINOPATHY, TRAUMATIC BRAIN INJURY, CARDIOMYOPATHY, EYE DISEASE AND SKIN DAMAGE” (University of North Carolina at Pembroke, priority 2013, published 2016).

How the values were obtained:
Fischer rats = details: cited from earlier work
[1] = system: transgenic mouse model of Alzheimer's disease; details: cited from earlier work
active cathepsin B = experiment: Active cathepsin B in rat organotypic heart slice cultures (Aβ-induced cardiomyopathy model); type: cell-based; details: 2 days of treatment, P=0.027 vs vehicle
Method: FIG. 9. The active form of cathepsin B is reduced in the slice model of Δβ-induced cardiomyopathy. Organotypic heart slice cultures from rats were treated with the control vehicle solution or with Δβ42, the peptide that accumulates in Alzheimer's disease brains as well as in heart tissue during some forms of cardiomyopathy.
To test for changes in cathepsin B during protein accumulation induced myopathy, heart slice cultures from rat were prepared and treated with […], the peptide that accumulates in Alzheimer's disease brains as well as in heart tissue during some forms of cardiomyopathy (Bateman et al., 2012; Sanbe et al., 2004, 2005).

Row | Compound | spatial memory (Fischer rats) | spatial learning [1] | active cathepsin B in heart slices (active cathepsin B)
1 | CC12CC3CC(C)(C1)CC(N)(C3)C2 [memantine] | failed to significantly improve | improve spatial learning | –
2 | Aβ42: the peptide that accumulates in Alzheimer's disease brains as well as in heart tissue during some forms of cardiomyopathy | – | – | significant decrease
